Measurements taken from EP4806892A1, “CEREBLON E3 UBIQUITIN LIGASE INHIBITOR” (GAN & LEE PHARMACEUTICALS CO., LTD., priority 2023, dated 2025).

Key:
Assay type in all cases: cell-based
LNCAP cell = assay: LNCaP cell proliferation inhibition (WST-8); details: Homo sapiens, LNCaP FGC cells, 96 hours, read-out: IC50 for inhibiting LNCAP cell proliferation
Procedure: LNCaP FGC cells (ATCC, CLR-1740) were cultured in RPMI 1640 (ATCC, 30-2001) complete medium supplemented with 10% fetal bovine serum (Hyclone, SH30406.05). On the first day of the experiment, LNCaP FGC cells were seeded at a density of 5,000 cells/well in 96-well plates using RPMI 1640 medium supplemented with 10% fetal bovine serum, with 100 µL of cell suspension per well. The cells were cultured overnight in a 37°C, 5% CO2 cell incubator. On the second day, 100 µL of different concentrations of the compound to be tested and the positive control sample ARV-766 (source: Energy Chemical) prepared in culture medium were added to each well. The final concentration of the compound was 9 concentration points of 5-fold serial dilution starting from 10 µM. The wells to which 100 µL of RPMI 1640 culture medium containing 10% fetal bovine serum was added were set as controls. The cells were cultured in a cell culture incubator at 37°C and 5% CO2 for 96 hours. On the sixth day, the 96-well cell culture plate was removed, and 1/10 volume of WST-8 (Beytime, C0040) reagent was added to each well. The absorbance at 450 nm was detected using a microplate reader (TECAN, F50).

AR protein = target: T1, AR protein (Homo sapiens, UniProt P10275, T878A); assay: AR protein degradation in LNCaP cells (Western blot); details: 8 hours
T1 construct: AR-positive human prostate cancer cells (LNCaP, cell source: ATCC); host or cells: LNCaP
T1 sequence (P10275 whole entry T878A): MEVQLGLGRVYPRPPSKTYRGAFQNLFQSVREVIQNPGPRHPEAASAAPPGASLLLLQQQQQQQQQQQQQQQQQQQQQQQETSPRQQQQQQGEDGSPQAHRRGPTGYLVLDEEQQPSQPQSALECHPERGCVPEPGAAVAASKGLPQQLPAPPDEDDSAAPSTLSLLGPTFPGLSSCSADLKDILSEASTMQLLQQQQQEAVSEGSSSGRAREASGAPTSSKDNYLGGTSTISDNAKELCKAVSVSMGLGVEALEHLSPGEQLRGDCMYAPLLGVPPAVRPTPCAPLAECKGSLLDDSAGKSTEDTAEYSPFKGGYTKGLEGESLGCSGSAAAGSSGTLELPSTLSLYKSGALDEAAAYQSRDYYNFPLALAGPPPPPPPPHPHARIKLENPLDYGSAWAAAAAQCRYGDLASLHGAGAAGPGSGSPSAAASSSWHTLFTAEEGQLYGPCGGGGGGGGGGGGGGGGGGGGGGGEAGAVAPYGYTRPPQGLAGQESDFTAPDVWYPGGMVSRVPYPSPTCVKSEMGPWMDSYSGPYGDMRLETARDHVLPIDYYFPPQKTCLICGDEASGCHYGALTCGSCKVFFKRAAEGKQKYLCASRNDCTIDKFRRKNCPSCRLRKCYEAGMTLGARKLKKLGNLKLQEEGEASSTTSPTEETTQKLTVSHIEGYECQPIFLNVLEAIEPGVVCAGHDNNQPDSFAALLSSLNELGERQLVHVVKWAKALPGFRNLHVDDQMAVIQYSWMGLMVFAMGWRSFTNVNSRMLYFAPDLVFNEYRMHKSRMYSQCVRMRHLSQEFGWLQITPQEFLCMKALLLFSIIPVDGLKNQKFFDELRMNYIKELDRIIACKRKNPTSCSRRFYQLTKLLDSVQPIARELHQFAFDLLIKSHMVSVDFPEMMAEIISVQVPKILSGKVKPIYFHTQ
T1 sequence (Q96SW2 whole entry partner): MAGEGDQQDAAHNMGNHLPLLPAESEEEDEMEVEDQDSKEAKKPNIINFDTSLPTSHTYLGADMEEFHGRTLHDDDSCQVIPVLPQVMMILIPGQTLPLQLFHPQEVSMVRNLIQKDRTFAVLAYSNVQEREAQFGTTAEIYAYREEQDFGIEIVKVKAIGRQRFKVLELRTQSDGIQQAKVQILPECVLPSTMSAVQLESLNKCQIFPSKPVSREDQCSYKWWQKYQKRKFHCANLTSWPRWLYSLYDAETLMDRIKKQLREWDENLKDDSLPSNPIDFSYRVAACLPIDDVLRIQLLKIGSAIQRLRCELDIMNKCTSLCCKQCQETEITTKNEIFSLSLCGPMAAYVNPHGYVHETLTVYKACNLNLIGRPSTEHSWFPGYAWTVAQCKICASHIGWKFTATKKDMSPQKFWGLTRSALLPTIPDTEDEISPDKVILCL
Procedure: AR-positive human prostate cancer cells (LNCaP, cell source: ATCC) were cultured in RPMI 1640 (ATCC catalog number 30-2001) containing 10% FBS (Hyclone catalog number SH30406.05), and the cells were inoculated into a six-well microplate (Thermo catalog number 140675) at a density of 1.5 × 10^5 cells/well. After the cells were cultured overnight in a carbon dioxide incubator (ESCO), the prepared compound of the present invention and the positive control sample ARV-766 (source: energy chemical) solution of different concentrations were added at a volume of 1 µL/well to make the final concentrations of the compound and the positive control sample reach 100nM and 10nM, respectively. At the same time, the corresponding solvent control was set and cultured for 8 hours. After 8 hours of culture, the culture medium was removed, the cells were washed with PBS, and RIPA lysis buffer containing 1% Protease Inhibitor Cocktail was added. After lysis and centrifugation, the total protein extract was obtained, and the protein concentration in the extract was detected by BCA method. Protein electrophoresis was performed using SDS-PAGE, and then the protein was transferred to a PVDF (Millipore Sigma catalog number PSRP010R5) membrane at a constant voltage of 100V for 60 minutes. The PVDF membrane was placed in a 5% milk powder 1×TBST solution and blocked at room temperature for 1 hour. The primary antibody solution (Anti-Androgen receptor, Cell Signaling Technology catalog number: 5153S; 1:2000 dilution) was prepared and incubated at 4°C overnight. The primary antibody solution was discarded and the PVDF membrane was washed with 1×TBST for 5 minutes each time, three times. The secondary antibody solution (Thermo, catalog number SA5-35571; 1:7500 dilution) was prepared and incubated at room temperature for 1 hour. The secondary antibody solution was discarded and the PVDF membrane was washed with 1×TBST for 5 minutes each time, three times. A dual-color infrared laser imaging system (Licor catalog number Odyssey CLX) was used for Western membrane imaging. The Image Studio software was used to analyze the grayscale of the bands. GAPDH protein bands were also detected for each sample as an internal reference. The AR protein degradation rate of the compound and the positive control sample was calculated based on the grayscale of the protein bands. Among them, "A" means degradation rate ≥ 50%, "B" means 50%> degradation rate ≥ 20%, "C" means 20% degradation rate ≥ 10%, and "D" means degradation rate less than 10%.

VCaP cell = VCaP cell proliferation inhibition (WST-8); details: Homo sapiens, VCaP cells, 168 hours, read-out: IC50 for inhibiting VCAP cell proliferation
Procedure: VCaP cells (ATCC, CRL-2876) were cultured in DMEM (Gibco, 11995-065) complete medium containing 10% fetal bovine serum (Hyclone, SH30406.05). On the first day of the experiment, VCaP cells were seeded at a density of 15,000 cells/well in a 96-well plate using DMEM medium containing 10% fetal bovine serum, with 100 µL of cell suspension per well, and cultured overnight in a cell culture incubator at 37°C and 5% CO2. […] The final concentration of the compound was 9 concentration points of 5-fold serial dilution starting from 10 µM. The wells to which 100 µL of DMEM medium containing 10% fetal bovine serum was added were set as blank controls and cultured in a cell culture incubator at 37°C and 5% CO2 for 168 hours. On the ninth day, the 96-well cell culture plate was removed and 1/10 volume of WST-8 (Beytime, C0040) reagent was added to each well. The absorbance at 450 nm was measured using a microplate reader (TECAN, F50).

T-47D cells = assay: T-47D cell proliferation inhibition (CCK-8); details: Homo sapiens, T47D, 144 h, 6 days
Procedure: The complete culture medium required for breast ductal carcinoma T-47D cells is 1640 (ATCC, Product number: A10491-01) basal medium containing 10% fetal bovine serum. T-47D cells were seeded in 96-well plates at a density of 3,000/well, and different concentrations of PROTAC compounds 1-55 provided in the embodiments of the present invention and the positive control sample ARV-471 (source: Inokai) were prepared to treat the cells and incubated at 37°C, 5% CO2 in a cell culture incubator for 6 days. According to the manufacturer's instructions, the CCK-8 kit (Beyotime, Product number: C0040) was used to detect cell viability. The IC50 of each compound for 6 days was calculated using GraphPadPrism software based on the inhibition rate. Table 6: IC50 value for the inhibition of T-47D cell proliferation by PROTAC compounds and positive control sample

MCF-7 cells = assay: MCF-7 cell proliferation inhibition (CCK-8); details: Homo sapiens, MCF7, 144 h, 6 days
Procedure: The complete culture medium required for breast cancer MCF-7 cells (source ATCC) is DMEM (gibco, Product number: 11995-065) basal medium containing 10% fetal bovine serum. MCF-7 cells were seeded in 96-well plates at a density of 800 cells/well, and different concentrations of PROTAC compounds 1-55 provided in the embodiments of the present invention and the positive control sample ARV-471 (source: Inokai) were prepared to treat cells. The cells were incubated at 37 °C and 5% CO2 in a cell culture incubator for 6 days. Cell viability was detected using a CCK-8 kit (Beyotime, Product number: C0040) according to the manufacturer's instructions. The IC50 value of each PROTAC compound for 6 days was calculated using GraphPad Prism software based on the inhibition rate. Table 7: IC50 value for the inhibition of MCF-7 cell proliferation by PROTAC compounds of the present disclosure and positive control sample

SMILES | IC50 (LNCAP cell) | Degradation rate of AR protein in LNCAP cells (AR protein; 10 nM) | Degradation rate of AR protein in LNCAP cells (AR protein; 100 nM) | IC50 (VCaP cell) | IC50 (T-47D cells) | IC50 (MCF-7 cells)
COc1cc(N2CC3(CCN(c4ccc(C(=O)N5CCC(CN6CCC7(CCc8ccc(N9CCC(=O)NC9=O)cc8O7)CC6)CC5)cc4)CC3)C[C@@H]2C)ccc1C#N [A-P-83, (S)-4-(8-(4-(4-((7-(2,4-dioxotetrahydropyrimidin-1(2H)-yl)spiro[chroman-2,4'-piperidine]-1'-yl)methyl)piperidine-1-carbonyl)phenyl)-3-methyl-2,8-diazaspiro[4.5]dec-2-yl)-2-methoxybenzonitrile] | 550 nM | A (degradation rate ≥ 50%) | A (degradation rate ≥ 50%) | < 0.026 nM | – | –
O=C1CC[C@H](N2Cc3cc(N4CCN(CC5CCN(c6ccc([C@@H]7c8ccc(O)cc8CC[C@@H]7c7ccccc7)cc6)CC5)CC4)ccc3C2=O)C(=O)N1 [ARV-471, reference compound] | – | – | – | – | 2.69 nM | 113 nM
O=C1CCN(c2ccc3c(c2)OCC32CCN(C[C@H]3CC[C@@H](OC4CCN(c5ccc([C@@H]6c7ccc(O)cc7CC[C@@H]6c6ccccc6)cc5)CC4)CC3)CC2)C(=O)N1 [ER-P-4, 1-(1'-(((1S,4S)-4-((1-(4-((1R,2S)-6-hydroxy-2-phenyl-1,2,3,4-tetrahydronaphthalen-1-yl)phenyl)piperidin-4-yl)oxy)cyclohexyl)methyl)-2H-spiro [benzofuran-3,4'-piperidine]-6-yl)dihydropyrimidine-2,4(1H,3H)-dione] | – | – | – | – | 52.5 nM | 944 nM
O=C1CCC(c2ccc3c(c2)OC2(CC3)CCN(C[C@H]3CC[C@@H](OC4CCN(c5ccc([C@@H]6c7ccc(O)cc7CC[C@@H]6c6ccccc6)cc5)CC4)CC3)CC2)C(=O)N1 (stereo partly drawn) [ER-P-5, 3-(1'-(((1S,4S)-4-((1-(4-((1R,2S)-6-hydroxy-2-phenyl-1,2,3,4-tetrahydronaphthyl-1-yl)phenyl)piperidin-4-yl)oxy)cyclohexyl)methyl)spiro[chroman-2,4'-piperidine]-7-yl)piperidine-2,6-dione] | – | – | – | – | – | 873 nM
O=C1CCN(c2ccc3c(c2)CC2(CCN(C[C@H]4CC[C@@H](OC5CCN(c6ccc([C@@H]7c8ccc(O)cc8CC[C@@H]7c7ccccc7)cc6)CC5)CC4)CC2)CO3)C(=O)N1 [ER-P-6, 1-(1'-(((1S,4S)-4-((1-(4-((1R,2S)-6-hydroxy-2-phenyl-1,2,3,4-tetrahydronaphthalen-1-yl)phenyl)piperidin-4-yl)oxy)cyclohexyl)methyl)spiro[benzo-dihydro-3,4'-piperidin]-6-yl)dihydropyrimidine-2,4(1H,3H)-dione] | – | – | – | – | 367 nM | 847 nM
